This note sets out measurements from PubChem BioAssay AID742 (SRMLSC, 2007).

The source made the active and inactive calls. How the calls were made is not given here.

Assay [1] relates to human cells, Her2 expression AlphaScreen; CTG viability. Kind of assay: Her2 expression suppression with viability readout – cell-based, AlphaScreen, CellTiter-Glo viability, dose response (AID 742). Conditions: viability, CellTiter-Glo.
Experiment in assay [2]: as above
Particulars: human cells, Her2 expression AlphaScreen; CTG viability; at 9.62 µM (top of the series). (In Alpha technology, singlet oxygen from a donor bead excites a nearby acceptor bead.)

In assay [1], `CSc1ccc2c(c1)N(CCC1CCCCN1C)c1ccccc1S2` (stereo unspecified) had a half-maximal effective concentration (EC50) of more than 9.62 µM. The Her2 inhibition in assay [2] was -45.6% (inactive).
Turning to `O=S(=O)(CCSc1ccccn1)c1nc2ccccc2s1`, in assay [1], the 50% effective concentration (EC50) is more than 9.62 µM. Besides, in assay [2], the Her2 inhibition was 12.7% (inactive).
For `N=c1n(CCO)c2ccccc2n1CCOc1ccc(Cl)cc1Cl`, the half-maximal effective concentration (EC50) in assay [1] was more than 9.62 µM. The Her2 inhibition in assay [2] was -2.09% (inactive).
Compound `COCCn1c(Cc2ccccc2)nnc1SCC(=O)N(C)C` registered a concentration for a half-maximal effect (EC50) in assay [1] of more than 9.62 µM. The Her2 inhibition in assay [2] is 6.46% (inactive).
For `Cc1cccc(Nc2nc(-c3ccccn3)cs2)n1` the same measures were more than 9.62 µM and 0.46% (inactive).
Turning to `CN1CCN(CCCN2c3ccccc3Sc3ccc(Cl)cc32)CC1`, the EC50 in assay [1] is more than 9.62 µM. Besides, the Her2 inhibition in assay [2] was -5.38% (inactive).
Regarding `Clc1ccc(-n2nnnc2Sc2ncnc3sccc23)cc1`, the EC50 in assay [1] was more than 9.62 µM. For the same compound, the Her2 inhibition in assay [2] was -1.39% (inactive).
`C=CCOC(=O)C1=C(C)Nc2nnnn2C1c1cc(OC)ccc1OC` (stereo unspecified): the EC50 in assay [1] was more than 9.62 µM. Moreover, in assay [2], the Her2 inhibition is -8.6% (inactive).
For `CCc1nc(C)ccc1OCC(=O)NCCCN(C)C` the same measures were more than 9.62 µM and -3% (inactive).
Taken in the same sequence, the figures for `Cc1nn(C)c(C)c1Sc1ccc(Br)cc1` were more than 9.62 µM and -6.9% (inactive).
Taken in the same sequence, the figures for `CN1CCN(c2ccc(C(N)=O)cc2N)CC1` were more than 9.62 µM and -16.8% (inactive).
In turn, `CC1CN=C(N(C(=O)Nc2ccccc2)c2ccc(S(=O)(=O)N3CCOCC3)cc2)S1` (stereo unspecified) came in with a 50% effective concentration (EC50) in assay [1] of more than 9.62 µM. Further, the Her2 inhibition in assay [2] is -5.35% (inactive).
Taken in the same sequence, the figures for `CCCn1c(Nc2nc3ccccc3n2C)nc2ccccc21` were more than 9.62 µM and -10.1% (inactive).
The compound `O=c1cccc(-c2ccccc2)[nH]1` came in with an EC50 in assay [1] of more than 9.62 µM. Moreover, in assay [2], the Her2 inhibition is -24.1% (inactive).
For `COc1ccccc1-n1nnnc1S(=O)(=O)Cc1ccc(Cl)cc1`, the 50% effective concentration (EC50) in assay [1] was more than 9.62 µM. The Her2 inhibition in assay [2] was 23.5% (inactive).
In turn, `Cc1nnc(SCc2nnc(-c3ccccc3Br)o2)n1-c1ccccc1` had a half-maximal effective concentration (EC50) in assay [1] of more than 9.62 µM. For the same compound, in assay [2], the Her2 inhibition was -17.1% (inactive).
Taken in the same sequence, the figures for `COc1ccccc1-c1cc(C(F)(F)F)nc(S(=O)(=O)CCCC(=O)N2CCCCC2C)n1` (stereo unspecified) were more than 9.62 µM and -11.6% (inactive).
In assay [1], `Clc1cccc(-c2nnc(-c3ccccc3)o2)c1` gave an EC50 of less than 0.024 µM. Also, in assay [2], the Her2 inhibition is 34.8% (inactive).
With `CC1(C)CC(=O)C2(CC3=C(CC(C)(C)CC3=O)O2)C(=O)C1`, in assay [1], the EC50 was more than 9.62 µM. For the same compound, in assay [2], the Her2 inhibition was -2.95% (inactive).
For `CS(=O)(=O)c1ccc(Cl)c(NC(=O)COC(=O)CNC(=O)c2ccc(Br)o2)c1` the same measures were more than 9.62 µM and 5.14% (inactive).
`O=C(CN1CCC(c2nc3ccccc3s2)CC1)NCc1cccs1` displayed a concentration for a half-maximal effect (EC50) in assay [1] of more than 9.62 µM. The Her2 inhibition in assay [2] was -41.9% (inactive).
With `Cc1ccc(/C=C/C2=Cc3c(sc(NC(=O)CSc4n[nH]c(N)n4)c3C#N)C(C)(C)C2)o1`, the half-maximal effective concentration (EC50) in assay [1] is more than 9.62 µM. For the same compound, the Her2 inhibition in assay [2] is -0.68% (inactive).
Consider `CCOC(=O)c1c(-c2cccs2)csc1NC(=O)c1ccco1`, for which, in assay [1], the EC50 was more than 9.62 µM. The Her2 inhibition in assay [2] is 17.4% (inactive).
Consider `Nc1nc2n(n1)C(c1cccs1)CC(c1ccc(Br)cc1)N2` (stereo unspecified), for which the 50% effective concentration (EC50) in assay [1] is more than 9.62 µM. In addition, in assay [2], the Her2 inhibition is -10.7% (inactive).
For `COc1ccc(CCN2CCC(Nc3nc4ccccc4n3Cc3ccc(F)cc3)CC2)cc1`, the EC50 in assay [1] is more than 9.62 µM. In addition, the Her2 inhibition in assay [2] was -28.9% (inactive).
For `CC1(C)CC(=O)C2=C(C1)OC1=C(C(=O)CC(C)(C)C1)C2c1ccc(O)cc1O`, the EC50 in assay [1] was more than 9.62 µM. Further, the Her2 inhibition in assay [2] was 10.8% (inactive).
In assay [1], `N#CC1=C2SCN(c3ccccc3)CN2C(=O)CC1c1cccs1` (stereo unspecified) had an EC50 of more than 9.62 µM. Also, in assay [2], the Her2 inhibition was -27.6% (inactive).
Taken in the same sequence, the figures for `C=CCn1c(=O)c2ccccc2n2c(SCc3cc(=O)n4ccsc4n3)nnc12` were more than 9.62 µM and -18.6% (inactive).
For `O=C(Nc1nccs1)C1C2/C=C\CCCCC21` (stereo unspecified) the same measures were more than 9.62 µM and -0.67% (inactive).
For `O=C1CC(Sc2nnc(-c3ccccc3O)o2)C(=O)N1c1ccccc1` (stereo unspecified) the same measures were more than 9.62 µM and -8.42% (inactive).
Compound `Cc1ccc(C2CC(=O)N3CN(c4ccc(Br)cc4)CSC3=C2C#N)o1` (stereo unspecified) had a 50% effective concentration (EC50) in assay [1] of more than 9.62 µM. In assay [2], the Her2 inhibition was 16% (inactive).
The compound `Cn1nnnc1SCC(=O)Nc1c(Cl)cccc1Cl` registered an EC50 in assay [1] of more than 9.62 µM. In addition, in assay [2], the Her2 inhibition was -18.1% (inactive).
For `CCCCCNC(=O)C(C#N)c1nc2ccccc2nc1N1CCCC1` (stereo unspecified), the half-maximal effective concentration (EC50) in assay [1] is more than 9.62 µM. Also, the Her2 inhibition in assay [2] was -19% (inactive).

In general, EC50 refers to the midpoint of the concentration-response curve. A lower EC50 goes with higher potency in that assay.
